Experimental data from patent US7235551B2, “1,5-disubstituted-3,4-dihydro-1h-pyrimido[4,5-d]pyrimidin-2-one compounds and their use in treating csbp/p38 kinase mediated diseases” (SmithKline Beecham Corporation, priority 2000, dated 2007).

melting point | Structure (SMILES)
210 to 211 °C | COc1nc(-c2ccc(F)cc2C)c2c(n1)N(c1c(F)cccc1F)C(=O)NC2 [Example 161, 1-(2,6-Difluorophenyl)-5-(4-fluoro-2-methylphenyl)-7-methoxy-3,4-dihydro-1H-pyrimido[4,5-d]pyrimidin-2-one]
172 to 175 °C | Cc1cc(F)ccc1-c1nc(OCCO)nc2c1CNC(=O)N2c1c(F)cccc1F [Example 163, 1-(2,6-Difluorophenyl)-5-(4-fluoro-2-methylphenyl)-7-(2-hydroxyethoxy)-3,4-dihydro-1H-pyrimido[4,5-d]pyrimidin-2-one]
221 to 224 °C | COc1nc(-c2ccccc2)c2c(n1)N(c1c(F)cccc1F)C(=O)NC2 [Example 166, 1-(2,6-Difluorophenyl)-5-phenyl-7-methoxy-3,4-dihydro-1H-pyrimido[4,5-d]pyrimidin-2-one]
220 to 222 °C | COc1nc(-c2ccccc2)c2c(n1)N(c1ccccc1)C(=O)NC2 [Example 167, 1,5-diphenyl-7-methoxy-3,4-dihydro-1H-pyrimido[4,5-d]pyrimidin-2-one]
